Tests used:
[1] = test system: IPOHE (Ipomoea hederacea); assay: Postemergence herbicidal evaluation; assay type: in vivo, (L.) Jacq.; settings: postemergence
Method in brief: (§1)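 Seedlings grown about two weeks in flats, sprayed, then kept under standard greenhouse care. Rated visually 4–5 weeks after treatment on a 0–9 scale (stand, vigour, malformation, size, chlorosis, overall appearance) relative to untreated control; repeat tests averaged.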

[2] = test system: ECHCG (Echinochloa crus-galli); assay: Postemergence herbicidal evaluation; assay type: in vivo, (L.) Beau; settings: postemergence
Method in brief: as §1

[3] = test system: ABUTH (Abutilon theophrasti); assay: Postemergence herbicidal evaluation; assay type: in vivo, Medic.; settings: postemergence
Method in brief: as §1

[4] = test system: SETVI (Setaria viridis); assay: Postemergence herbicidal evaluation; assay type: in vivo, (L.) Beau; settings: postemergence
Method in brief: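 Seedlings grown about two weeks were sprayed with compound in 50/50 acetone/water containing 0.5% TWEEN 20, at about 0.0040 to 1.000 kg/ha via nozzle at 40 psi. Plants were kept under greenhouse conditions and visually rated on a 0-9 scale versus control four to five weeks after treatment; replicate tests averaged.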

[5] = test system: GLXMA (Soybean); assay: Postemergence herbicidal evaluation; assay type: in vivo, Glycine max, (L.) Merr.; settings: postemergence
Method: In the tests, seedling plants are grown in jiffy flats for about two weeks. The test compounds are dispersed in 50/50 acetone/water mixtures containing 0.5% TWEEN® 20, a polyoxyethylene sorbitan monolaurate surfactant of Atlas Chemical Industries, in sufficient quantities to provide the equivalent of about 0.0040 kg to 1.000 kg per hectare of active compound when applied to the plants through a spray nozzle operating at 40 psi for a predetermined time. After spraying, the plants are placed on greenhouse benches and are cared for in accordance with conventional greenhouse procedures. From four to five weeks after treatment, the seedling plants are examined and rated according to the rating system set forth below. Where more than one test is involved for a given compound, the data are averaged.
Results of herbicide evaluation are expressed on a rating scale (0-9). The scale is based upon a visual observation of plant stand, vigor, malformation, size, chlorosis and overall plant appearance as compared with a control.

[6] = test system: ZEAMX (Corn, Field); assay: Postemergence herbicidal evaluation; assay type: in vivo, Zea mays, L.; settings: postemergence
Method in brief: as §1

[7] = test system: CHEAL (Chenopodium album); assay: Postemergence herbicidal evaluation; assay type: in vivo, L.; settings: postemergence
Method in brief: as §1

[8] = test system: AMBEL (Ambrosia artemisifolia); assay: Postemergence herbicidal evaluation; assay type: in vivo, L.; settings: postemergence
Method in brief: as §1

[9] = test system: ABUTH (Abutilon theophrasti); assay: Preemergence herbicidal evaluation; assay type: in vivo, Medic.; settings: preemergence, rated 4-5 weeks after treatment
[10] = test system: GALAP (Galium aparine); assay: Preemergence herbicidal evaluation; assay type: in vivo; settings: preemergence, rated 4-5 weeks after treatment
Method in brief: (§2)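 Seeds planted in potting soil cups and sprayed preemergence with aqueous acetone compound solution. Greenhouse-grown; rated 4–5 weeks after treatment on a 0-9 visual scale (stand, vigor, malformation, size, chlorosis, appearance) versus control.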

[11] = test system: GALAP (Galium aparine); assay: Postemergence herbicidal evaluation; assay type: in vivo; settings: postemergence
Method in brief: as §1

[12] = test system: ECHCG (Echinochloa crus-galli); assay: Preemergence herbicidal evaluation; assay type: in vivo, (L.) Beau; settings: preemergence, rated 4-5 weeks after treatment
Method in brief: as §2

[13] = test system: CYPIR (Cyperus iria); assay: Flooded paddy, preemergence weed control; assay type: in vivo; settings: rated 3-4 weeks after treatment, 0-9 rating scale
Method in brief: (§3)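 Flooded silt loam pots, seeds in upper 0.5 cm, water held 1.5–3 cm deep; greenhouse; visual 0-9 score vs control.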

[14] = test system: ORYSAT (Rice, Tebonnet); assay: Postemergence herbicidal evaluation; assay type: in vivo, Oryza sativa, (L.) Tebonnet; settings: postemergence
Method in brief: as §1

[15] = test system: TRZAWR (Wheat, Winter, cv Riband); assay: Postemergence herbicidal evaluation; assay type: in vivo, Triticum aestivum; settings: postemergence
Method in brief: as §1

[16] = test system: AMBEL (Ambrosia artemisifolia); assay: Preemergence herbicidal evaluation; assay type: in vivo, L.; settings: preemergence, rated 4-5 weeks after treatment
Method in brief: as §2

[17] = test system: ZEAMX (Corn, Field); assay: Preemergence herbicidal evaluation; assay type: in vivo, Zea mays, L.; settings: preemergence, rated 4-5 weeks after treatment
[18] = test system: MOOVA (Monochoria vaginalis); assay: Flooded paddy, preemergence weed control; assay type: in vivo, Presl.; settings: rated 3-4 weeks after treatment, 0-9 rating scale
Method in brief: as §3

[19] = test system: IPOHE (Ipomoea hederacea); assay: Preemergence herbicidal evaluation; assay type: in vivo, (L.) Jacq.; settings: preemergence, rated 4-5 weeks after treatment
[20] = test system: ECHORC (Echinochloa oryzoides); assay: Flooded paddy, preemergence weed control; assay type: in vivo, Echinochloa oryzoides (Ard.) Fritsch.; settings: rated 3-4 weeks after treatment, 0-9 rating scale
Method in brief: as §3

[21] = test system: GLXMAW (Soybean, Williams); assay: Postemergence herbicidal evaluation; assay type: in vivo, Glycine max, (L.) Merr. cv Williams; settings: postemergence
Method in brief: as §1

[22] = test system: GLXMA (Soybean); assay: Preemergence herbicidal evaluation; assay type: in vivo, Glycine max, (L.) Merr.; settings: preemergence, rated 4-5 weeks after treatment
[23] = test system: ORYSAT (Rice, Tebonnet); assay: Flooded paddy, post-transplant rice tolerance; assay type: in vivo, Oryza sativa, (L.) Tebonnet; settings: in vivo
Method in brief: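 Ten-day-old seedlings, 2/pot, silt loam; flood kept 1.5–3 cm over soil; herbicide applied post-transplant; greenhouse; score 0–9 visual vs control.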

[24] = test system: SAGPY (Sagittaria pygmaea); assay: Flooded paddy, preemergence weed control; assay type: in vivo, L.; settings: rated 3-4 weeks after treatment, 0-9 rating scale
Method in brief: as §3

[25] = test system: CASOB (Cassia obtusifolia); assay: Postemergence herbicidal evaluation; assay type: in vivo, L.; settings: postemergence
Method in brief: as §1

CCN=C1NC(=O)C(OC)(c2nsc3ccc(-n4c(=O)cc(C(F)(F)F)n(C)c4=O)cc23)N1 (stereo not shown) [Compound 98, 3-[3[4-methoxy-2-(ethylimino)-5-oxo-4-imidazolidinyl]-1,2-benzisothiazol-5-yl]-1-methyl-6-(trifluoromethyl)uracil]
IPOHE herbicidal rating ([1]; rate 0.0320 kg/ha): 9.0
IPOHE herbicidal rating ([1]; rate 0.0620 kg/ha): 8.0
ECHCG herbicidal rating ([2]; rate 0.0320 kg/ha): 2.0
ECHCG herbicidal rating ([2]; rate 0.0620 kg/ha): 2.0
ABUTH herbicidal rating ([3]; rate 0.0320 kg/ha): 9.0
ABUTH herbicidal rating ([3]; rate 0.0620 kg/ha): 9.0
SETVI herbicidal rating ([4]; rate 0.0320 kg/ha): 3.0
SETVI herbicidal rating ([4]; rate 0.0620 kg/ha): 3.0
GLXMA herbicidal rating ([5]; rate 0.0320 kg/ha): 8.0
GLXMA herbicidal rating ([5]; rate 0.0620 kg/ha): 8.0
ZEAMX herbicidal rating ([6]; rate 0.0320 kg/ha): 3.5
ZEAMX herbicidal rating ([6]; rate 0.0620 kg/ha): 3.5
CHEAL herbicidal rating ([7]; rate 0.0320 kg/ha): 6.0
CHEAL herbicidal rating ([7]; rate 0.0620 kg/ha): 8.0
AMBEL herbicidal rating ([8]; rate 0.0320 kg/ha): 8.0
AMBEL herbicidal rating ([8]; rate 0.0620 kg/ha): 8.0

5-[5-[3,6-dihydro-3-methyl-2,6-dioxo-4-(trifluoromethyl)-1(2H)-pyrimidinyl]-1,2-benzisothiazol-3-yl]-1,6-hydro-6-oxo-2,3-pyrazinedicarbonitrile [Compound 91]
Preemergence herbicidal rating ABUTH ([9]; rate 0.0620 kg/ha): 0.0
Preemergence herbicidal rating ABUTH ([9]; rate 0.1250 kg/ha): 0.0
Preemergence herbicidal rating ABUTH ([9]; rate 0.2500 kg/ha): 0.0
Preemergence herbicidal rating GALAP ([10]; rate 0.0620 kg/ha): 0.0
Preemergence herbicidal rating GALAP ([10]; rate 0.1250 kg/ha): 0.0
Preemergence herbicidal rating GALAP ([10]; rate 0.2500 kg/ha): 0.0
GALAP herbicidal rating ([11]; rate 0.0320 kg/ha): 3.0
GALAP herbicidal rating ([11]; rate 0.0620 kg/ha): 3.0
GALAP herbicidal rating ([11]; rate 0.1250 kg/ha): 3.0
IPOHE herbicidal rating ([1]; rate 0.0320 kg/ha): 7.0
IPOHE herbicidal rating ([1]; rate 0.0620 kg/ha): 7.0
IPOHE herbicidal rating ([1]; rate 0.1250 kg/ha): 8.0
ECHCG herbicidal rating ([2]; rate 0.0320 kg/ha): 0.0
ECHCG herbicidal rating ([2]; rate 0.0620 kg/ha): 0.0
ECHCG herbicidal rating ([2]; rate 0.1250 kg/ha): 0.0
Preemergence herbicidal rating ECHCG ([12]; rate 0.0620 kg/ha): 0.0
Preemergence herbicidal rating ECHCG ([12]; rate 0.1250 kg/ha): 0.0
Preemergence herbicidal rating ECHCG ([12]; rate 0.2500 kg/ha): 0.0
CYPIR herbicidal rating ([13]; rate 0.0320 kg/ha): 0.0
CYPIR herbicidal rating ([13]; rate 0.1250 kg/ha): 0.0
ORYSAT herbicidal rating ([14]; rate 0.0320 kg/ha): 0.0
ORYSAT herbicidal rating ([14]; rate 0.0620 kg/ha): 0.5
ORYSAT herbicidal rating ([14]; rate 0.1250 kg/ha): 1.0
TRZAWR herbicidal rating ([15]; rate 0.0320 kg/ha): 0.0
TRZAWR herbicidal rating ([15]; rate 0.0620 kg/ha): 0.0
TRZAWR herbicidal rating ([15]; rate 0.1250 kg/ha): 0.0
Preemergence herbicidal rating AMBEL ([16]; rate 0.0620 kg/ha): 0.0
Preemergence herbicidal rating AMBEL ([16]; rate 0.1250 kg/ha): 0.0
Preemergence herbicidal rating AMBEL ([16]; rate 0.2500 kg/ha): 0.0
Preemergence herbicidal rating ZEAMX ([17]; rate 0.0620 kg/ha): 0.0
Preemergence herbicidal rating ZEAMX ([17]; rate 0.1250 kg/ha): 0.0
Preemergence herbicidal rating ZEAMX ([17]; rate 0.2500 kg/ha): 0.0
MOOVA herbicidal rating ([18]; rate 0.0320 kg/ha): 0.0
MOOVA herbicidal rating ([18]; rate 0.1250 kg/ha): 0.0
Preemergence herbicidal rating IPOHE ([19]; rate 0.0620 kg/ha): 0.0
Preemergence herbicidal rating IPOHE ([19]; rate 0.1250 kg/ha): 0.0
Preemergence herbicidal rating IPOHE ([19]; rate 0.2500 kg/ha): 0.0
ECHORC herbicidal rating ([20]; rate 0.0320 kg/ha): 0.0
ECHORC herbicidal rating ([20]; rate 0.1250 kg/ha): 0.0
ABUTH herbicidal rating ([3]; rate 0.0320 kg/ha): 5.0
ABUTH herbicidal rating ([3]; rate 0.0620 kg/ha): 7.0
ABUTH herbicidal rating ([3]; rate 0.1250 kg/ha): 9.0
GLXMAW herbicidal rating ([21]; rate 0.0320 kg/ha): 6.0
GLXMAW herbicidal rating ([21]; rate 0.0620 kg/ha): 6.0
GLXMAW herbicidal rating ([21]; rate 0.1250 kg/ha): 6.0
Preemergence herbicidal rating GLXMA ([22]; rate 0.0620 kg/ha): 0.0
Preemergence herbicidal rating GLXMA ([22]; rate 0.1250 kg/ha): 0.0
Preemergence herbicidal rating GLXMA ([22]; rate 0.2500 kg/ha): 0.0
ZEAMX herbicidal rating ([6]; rate 0.0320 kg/ha): 1.5
ZEAMX herbicidal rating ([6]; rate 0.0620 kg/ha): 2.5
ZEAMX herbicidal rating ([6]; rate 0.1250 kg/ha): 3.0
ORYSAT herbicidal rating (transplanted rice tolerance) [23]: 0.0
SAGPY herbicidal rating ([24]; rate 0.0320 kg/ha): 0.0
SAGPY herbicidal rating ([24]; rate 0.1250 kg/ha): 0.0
CHEAL herbicidal rating ([7]; rate 0.0320 kg/ha): 9.0
CHEAL herbicidal rating ([7]; rate 0.0620 kg/ha): 9.0
CHEAL herbicidal rating ([7]; rate 0.1250 kg/ha): 9.0
AMBEL herbicidal rating ([8]; rate 0.0320 kg/ha): 4.0
AMBEL herbicidal rating ([8]; rate 0.0620 kg/ha): 4.0
AMBEL herbicidal rating ([8]; rate 0.1250 kg/ha): 5.0
CASOB herbicidal rating ([25]; rate 0.0320 kg/ha): 0.0
CASOB herbicidal rating ([25]; rate 0.0620 kg/ha): 3.0
CASOB herbicidal rating ([25]; rate 0.1250 kg/ha): 4.0

Reference: US6706663B2, “Herbicidal 3-heterocyclic substituted benzisothiazole and benzisoxazole compounds” (Wyeth, priority 2000, dated 2004)
